From patent US12319655B2, “RAF kinase inhibitors and methods of use thereof” (Deciphera Pharmaceuticals, LLC, priority 2021, dated 2025)

Key:
WM3629 cells = test: WM3629 Cell Proliferation Assay (2); assay type: cell-based
Procedure: WM3629 Cell Proliferation Assay (2)
(§1) WM3629 cells (#WM3629-01-0001) are obtained from Rockland Immunochemicals Inc (Gilbertsville, PA). Briefly, cells were grown in MCDB 153 medium (Sigma, #M7403, St. Louis, MO) supplemented with 20% Leibovitz's L-15 (ThermoFisher #11415-064, Waltham, MA), 2% heat inactivated fetal bovine serum (ThermoFisher, #A3840001, Waltham, MA), 5 μg/mL Insulin (Bovine Pancreas) (Sigma, #I0516, St. Louis, MO), 1.68 mM Calcium Chloride (Sigma, #C-34006, St. Louis, MO) and 1% Penicillin/Streptomycin/L-Glutamine (ThermoFisher #10378016, Waltham, MA) at 37° C., 5% CO2, and 95% humidity. Cells are expanded until reaching 70-95% confluency at which point they are sub-cultured or harvested for assay use. Using the Beckman Coulter Echo 650, a serial dilution of test compound is dispensed into a 384-well black clear bottom plate in triplicate. One thousand one hundred twenty-five cells are added per well in 50 μL complete growth medium in the 384-well plate. Plates are incubated for 67-72 hours at 37° C., 5% CO2, and 95% humidity. At the end of the incubation, 10 μL of a 440 μM solution of resazurin (Sigma, #199303, St. Louis, MO) in PBS is added to each well of the plate and plates are incubated for an additional 3-6 hours at 37° C., 5% CO2, and 95% humidity. Plates are read on a Synergy2 or equivalent reader (Biotek, Winooski VT) using an excitation of 540 nm and an emission of 600 nm. Data is analyzed using Prism software (GraphPad, San Diego, CA) to calculate IC50 values.

WM3928 cells = test: WM3928 Cell Proliferation Assay (2); assay type: cell-based
Procedure: WM3928 Cell Proliferation Assay (2)
as §1, with “WM3928” for “WM3629”, “(#WM3928-01-0001)” for “(#WM3629-01-0001)”, “#10516,” for “#I0516,”, “Seven” for “One thousand one”, “fifty” for “twenty-five”

[1] = target: B-Raf kinase (SEQ. ID NO: 2) (Homo sapiens (Human), UniProt P15056); test: Biochemical Assay for B-Raf (2); conditions: Table J, biochemical assay (2); read-out: BRAF (2)
Procedure: Biochemical Assay for B-Raf (2)
Activity of B-Raf kinase (SEQ. ID NO: 2) was determined spectroscopically using a coupled pyruvate kinase/lactate dehydrogenase assay that continuously monitors the ATP hydrolysis-dependent oxidation of NADH (e.g., Schindler et al., Science, 2000, 289, 1938-1942). Assays were conducted in 384-well plates (25 μL final volume) using 2 nM B-Raf (Sigma), 1.5 units pyruvate kinase, 2.1 units lactate dehydrogenase, 1 mM phosphoenol pyruvate, 0.7 mM NADH, 50 nM MEK (SignalChem), and 1 mM ATP in assay buffer (100 mM Tris, pH 7.5, 15 mM MgCl2, 0.5 mM DTT, 0.1% octyl-glucoside, 0.002% (w/v) BSA, and 0.002% Triton X-100). Inhibition of B-Raf was measured by adding serial diluted test compound (final assay concentration of 1% DMSO). A decrease in absorption at 340 nm was monitored hourly for 4 h at 30° C. on a multi-mode microplate reader (BioTek). The reaction rate was calculated using the 2 to 3 h time frame. The reaction rate at each concentration of compound was converted to percent inhibition using controls (i.e., reaction with no test compound and reaction with a known inhibitor) and IC50 values were calculated by fitting a four-parameter sigmoidal curve to the data using Prism (GraphPad software).

A375 cells = test: A375 Cell Proliferation Assay (2); assay type: cell-based; conditions: Homo sapiens, A-375
Procedure: A375 Cell Proliferation Assay (2)
A375 cells (catalog (#CRL-1619) are obtained from the American Type Culture Collect (ATTC, Manassas, VA). Briefly, cells were grown in DMEM High Glucose supplemented with 10% characterized fetal bovine serum (Invitrogen, Carlsbad, CA) and 1% Penicillin/Streptomycin/L-Glutamine at 37° C., 5% CO2, and 95% humidity. Cells are expanded until reaching 70-95% confluency at which point they are sub-cultured or harvested for assay use. Using the Beckman Coulter Echo 650, a serial dilution of test compound is dispensed into a 384-well black clear bottom plate in triplicate. Six hundred twenty-five cells are added per well in 50 μL complete growth medium in the 384-well plate. Plates are incubated for 67-72 h at 37° C., 5% CO2, and 95% humidity. At the end of the incubation, 10 μL of a 440 μM solution of resazurin (Sigma, St. Louis, MO) in PBS is added to each well of the plate and plates are incubated for an additional 3-6 h at 37° C., 5% CO2, and 95% humidity. Plates are read on a Synergy2 or equivalent reader (Biotek, Winooski VT) using an excitation of 540 nm and an emission of 600 nm. Data is analyzed using Prism software (GraphPad, San Diego, CA) to calculate IC50 values.

Sequence of B-Raf kinase (SEQ. ID NO: 2) (P15056 416-766): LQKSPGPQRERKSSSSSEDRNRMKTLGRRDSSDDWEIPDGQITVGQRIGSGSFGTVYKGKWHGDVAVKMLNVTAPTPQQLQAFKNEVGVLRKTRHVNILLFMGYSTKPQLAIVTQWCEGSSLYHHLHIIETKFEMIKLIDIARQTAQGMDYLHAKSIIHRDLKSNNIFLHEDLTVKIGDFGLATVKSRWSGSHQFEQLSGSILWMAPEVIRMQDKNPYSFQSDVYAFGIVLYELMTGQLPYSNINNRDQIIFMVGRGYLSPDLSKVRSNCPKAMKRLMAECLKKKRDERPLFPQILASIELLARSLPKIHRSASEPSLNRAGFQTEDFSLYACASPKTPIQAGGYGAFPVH

IC50 [1] [nM]	IC50 (A375 cells) [nM]	Structure (SMILES)	IC50 (WM3629 cells) [nM]	IC50 (WM3928 cells) [nM]
100 to 500	1000 to 10000	CNC(=O)c1cc(-c2cc(-c3cc(NC(=O)c4ccnc(C(C)(C)F)n4)ccc3C)ccn2)ccn1 [Example 494]	≤ 100	500 to 1000
≤ 100	≤ 100	CNC(=O)c1cc(-c2cc(-c3cc(NC(=O)c4cnnc(C(C)(C)F)c4)ccc3C)ccn2)ccn1 [Example 495]	≤ 100	≤ 100
100 to 500	≤ 100	CNC(=O)c1cc(-c2cc(-c3cc(NC(=O)c4ccnc(C5(F)CC5)c4)ccc3C)cc(C)n2)ccn1 [Example 496]	≤ 100	≤ 100
100 to 500	100 to 500	CNC(=O)c1cc(-c2cc(-c3cc(NC(=O)c4ccnc(C(C)(C)F)c4)c(F)cc3C)ccn2)ccn1 [Example 497]	≤ 100	100 to 500
100 to 500	100 to 500	[2H]C([2H])([2H])NC(=O)c1cc(-c2cc(-c3cc(NC(=O)c4ccnc(C5(F)CC5)c4)ccc3C)cc(C)n2)ccn1 [Example 498]	≤ 100	≤ 100
100 to 500	≤ 100	CNC(=O)c1cc(-c2cc(-c3cc(NC(=O)c4ccnc(C(C)(C)F)c4)ncc3C)ccn2)ccn1 [Example 499]	≤ 100	100 to 500
≤ 100	1000 to 10000	Cc1ccc(NC(=O)c2cn(C)nc2C(F)(F)F)cc1-c1cncc(-c2ccnc(NC(=O)C3CC3)c2)c1 [Example 500]	≤ 100	500 to 1000
≤ 100	100 to 500	Cc1ccc(NC(=O)c2ccc(C(F)(F)F)cc2)cc1-c1ccnc(-c2ccnc(NC(=O)C3CC3)c2)c1 [Example 501]	≤ 100	100 to 500
≤ 100	≤ 100	Cc1ccc(NC(=O)c2cccc(C(F)(F)F)c2)cc1-c1ccnc(-c2ccnc(NC(=O)C3CC3)c2)c1 [Example 502]	≤ 100	≤ 100
≤ 100	100 to 500	Cc1ccc(NC(=O)c2cc(C(F)(F)F)ccc2F)cc1-c1ccnc(-c2ccnc(NC(=O)C3CC3)c2)c1 [Example 503]	≤ 100	≤ 100

The remaining lines, values behind:

Structure (SMILES)	IC50 [1] [nM]	IC50 (A375 cells) [nM]	IC50 (WM3629 cells) [nM]	IC50 (WM3928 cells) [nM]
CNC(=O)c1cc(-c2cc(-c3cc(NC(=O)c4ccnc(C(C)(C)F)c4)ccc3Cl)ccn2)ccn1 [Example 485]	100 to 500	≤ 100	≤ 100	≤ 100
Cc1ccc(NC(=O)c2ccnc(C(C)(C)F)c2)cc1-c1cnnc(-c2ccnc(C(N)=O)c2)c1 [Example 486]	100 to 500	100 to 500	≤ 100	100 to 500
CNC(=O)c1cc(-c2cc(-c3cc(NC(=O)c4ccnc(C5(F)CC5)c4)ccc3C)ccn2)ccn1 [Example 487]	≤ 100	≤ 100	≤ 100	≤ 100
Cc1ccc(NC(=O)c2ccnc(C(C)(C)F)c2)cc1-c1cc(-c2ccnc(C(N)=O)c2)ncn1 [Example 488]	≤ 100	100 to 500	≤ 100	100 to 500
[2H]C([2H])([2H])NC(=O)c1cc(-c2cc(-c3cc(NC(=O)c4ccnc(C(C)(C)F)c4)ccc3C)ccn2)ccn1 [Example 489]	≤ 100	≤ 100	≤ 100	≤ 100
Cc1ccc(NC(=O)c2ccnc(C(C)(C)F)c2)cc1-c1cc(-c2ccnc(C(N)=O)c2)ncc1F [Example 490]	100 to 500	100 to 500	≤ 100	100 to 500
CC(C)(F)c1cc(C(=O)Nc2ccc(F)c(-c3ccnc(-c4ccnc(C(N)=O)c4)c3)c2)ccn1 [Example 491]	≤ 100	1000 to 10000	≤ 100	500 to 1000
CNC(=O)c1cc(-c2cc(-c3cc(NC(=O)c4cnnc(C(C)(F)F)c4)ccc3C)ccn2)ccn1 [Example 492]	≤ 100	100 to 500	≤ 100	100 to 500
[2H]C([2H])([2H])NC(=O)c1cc(-c2cc(-c3cc(NC(=O)c4ccnc(C(C)(C)F)c4)ccc3C)cc(C)n2)ccn1 [Example 493]	100 to 500	≤ 100	≤ 100	≤ 100
